Measurements as given in US5250735A, “2-(N-substituted-aminoalkyl)-5-(E)-alkylidene cyclopentanones, 2-(N-substituted-aminoalkyl)-5-(E)-arylalkylidene cyclopentanones, and derivatives thereof” (priority 1992, dated 1993).
Structures can show the parent of a compound that is named as a salt.

Columns and labels:
[1] = system: 60 human tumor cell lines; conditions: 5-fluorouracil comparison value; cited from earlier work
[2] = literature; cited from earlier work
[3] = literature; cited from earlier work; remark: listed apart in the source
[4] = system: acetic acid induced mouse writhes; assay: Acetic acid induced mouse writhes (analgesic activity); type: in vivo, mice; conditions: oral
Experimental: Analgesic activity was evaluated by a procedure similar to that described by Koster et al. [R. Koster, et al., Fed. Proc., 18, 412 (1959)]. About one hour after oral administration of test compounds to mice, 0.1 ml/10 g body weight of acetic acid was intraperitoneally injected. About five minutes later, the number of writhes of each mouse was counted for a period of about 20 minutes. The analgesic effect was manifested as a reduction in the number of writhes. "Compound numbers" refer to compounds whose synthesis is illustrated in the corresponding Example number. The P values are the results of T-tests, which are well known to those skilled in the art.

[5] = Acute toxicity; conditions: mouse, in vivo, 4 week old male mice
Experimental: (§1) The acute toxicity of one typical compound of this invention was measured by administering the compound to a group of 4 week old male mice.

[6] = system: male mice; assay: Acute toxicity; conditions: mouse, in vivo
Experimental: as §1

[7] = system: 60 human tumor cell lines; assay: National Cancer Institute in vitro tumor cell screen; type: cell-based; set-up: key to Differential Cellular Sensitivity GI50, tumor cell line subpanels / Differential Cellular Sensitivity LC50, tumor cell line subpanels / Differential Cellular Sensitivity TGI, tumor cell line subpanels: LEU: Leukemia/lymphoma; LNS: Nonsmall cell lung; COL: Colon; MEL: Melanoma; OVA: Ovary; REN: Kidney; SCL: Small cell lung; conditions: for GI50 / IC100 / LC50: Homo sapiens, molar concentration, mean of all cell lines; for GI50: 50% inhibition of cell proliferation, read-out: Mean response of all cell lines (Log) GI50 (converted); for IC100: 100% inhibition of cell proliferation, read-out: Mean response of all cell lines (Log) TGI (converted); for Differential Cellular Sensitivity GI50, tumor cell line subpanels: subpanels for GI50; for Differential Cellular Sensitivity LC50, tumor cell line subpanels: subpanels for LC50; for Differential Cellular Sensitivity TGI, tumor cell line subpanels: subpanels for TGI; for LC50: 50% of cell population killed, read-out: Mean response of all cell lines (Log) LC50 (converted)
Experimental: In the assay, a candidate compound was tested for its ability to inhibit tumor cell growth. A dose response curve of percent cell growth versus compound concentration over a concentration range of 10^-9 to 10^-4 molar of each test compound was established to determine GI50, TGI and LC50. GI50 and TGI denote that cell proliferation was inhibited by 50% and 100% respectively. LC50 denotes that 50% of cell population was killed. The selectivity of a compound towards a certain type of tumor cell line was evaluated from mean graphs which compared the relative drug concentrations required to produce the same level of response (e.g. GI50) in each cell line. A differential cellular sensitivity index was calculated by taking the difference between the logarithm of GI50 (or TGI, LC50) value for a cell line versus the arithmetic mean of the logarithm of GI50 (or TGI, LC 50) value for all cell line responses measured for a given compound.

[8] = system: Ehrlich ascites carcinoma; assay: Antitumor effect on Ehrlich ascites carcinoma, survival; type: in vivo, ICR mice; conditions: 20 mg/kg/day intraperitoneal, 9 days
Experimental: Antitumor effect was measured on Ehrlich ascites carcinoma. Ehrlich ascites carcinoma cells were intraperitoneally administered to ICR mice. After 24 hours, 20 mg/kg/day of the compound whose synthesis is illustrated in Example 1 and Example 2 were each administered to the mice by intraperitoneal route for 9 days. The periods of survival of these animals were examined.

[9] = system: carrageenin-induced rat paw edema; assay: Carrageenin-induced rat paw edema (anti-inflammatory activity); type: in vivo, Wistar rats; conditions: paw volume at about 3 hours
Experimental: Anti-inflammatory activity was evaluated by examining the inhibitory activity of candidate compounds on carrageenin-induced rat paw edema according to a literature procedure [C. A. Winter, et al., Proc. Soc. Exp. Biol. Med. 111, 544 (1962)]. Test compounds were orally administered about 1 hour or subcutaneously injected about 0.5 hours before the injection of 100 microliters of a 1% suspension of carrageenin in saline into the subcutaneous tissues of the right hind paw of Wistar rats. The paw volumes were measured about 3 hours after carrageenin injection. The paw volumes were compared with that of a control group to give the percentage of inflammation inhibition. The results of these tests are shown in Table I. "Compound numbers" refer to compounds whose synthesis is illustrated in the corresponding Example number. The P values are the results of T-tests, which are well known to those skilled in the art.

[10] = 50.0 mg/kg sc, about 0.5 hours before carrageenin
[11] = 25.0 mg/kg sc, about 0.5 hours before carrageenin
[12] = 96.0 mg/kg po, about 1 hour before carrageenin

| Compound | GI50 [7] [µM] | IC100 [7] [µM] | Differential Cellular Sensitivity GI50, tumor cell line subpanels [7] | Differential Cellular Sensitivity LC50, tumor cell line subpanels [7] | Differential Cellular Sensitivity TGI, tumor cell line subpanels [7] | LC50 [7] [µM] | also measured |
| --- | --- | --- | --- | --- | --- | --- | --- |
| O=c1[nH]cc(F)c(=O)[nH]1 [5-fluorouracil] |  |  |  |  |  |  | mean log LC50 [1]: -3.5 |
| C=C1C(=O)O[C@H]2C[C@@H](C)[C@@H]3C=CC(=O)[C@@]3(C)C[C@H]12 [Aromaticin] |  |  |  |  |  |  | anti-inflammatory activity (in words) [2]: potent; anticancer activity (in words) [3]: potent |
| CC(=O)Oc1ccccc1C(=O)O [Aspirin, reference compound] |  |  |  |  |  |  | Inhibition of acetic acid induced mouse writhes ([4]; 100 mg/kg): 46.7%; Inhibition of acetic acid induced mouse writhes ([4]; 200 mg/kg): 64.0% |
| CCCC/C=C1\CCC(CN(C)C)C1=O.Cl (centres unmarked) [Compound 1, 2-Dimethylaminomethyl-5-(E)-pentylidene cyclopentanone hydrochloride] | 1.58 | 3.8 | LEU;COL | COL;LNS;REN | COL;REN |  | LD50 ([5]; ip, intraperitoneal): 107 mg/kg; LD50 ([5]; iv, intraveneous): 52 mg/kg; LD50 ([5]; oral): 486 mg/kg; acute toxicity (in words) [6]: low acute toxicity; average number of days of survival [8]: 41 ± 5.4 days; increase of life span (ILS %) over the control [8]: 173.8%; ratio of survival for more than 40 days [8]: 9/11 |
| CCCCCCC/C=C1\CCC(CN(C)C)C1=O.Cl (centres unmarked) [Compound 2, 2-Dimethylaminomethyl-5-(E)-octylidene cyclopentanone hydrochloride] | 5.13 | 12.3 | LEU;COL | COL;LNS;REN | COL;REN |  | average number of days of survival [8]: 33 ± 8.2 days; increase of life span (ILS %) over the control [8]: 112.0%; ratio of survival for more than 40 days [8]: 3/9 |
| CC(C)=C1CCC(CN(C)C)C1=O.Cl (centres unmarked) [Compound 3, 2-Dimethylaminomethyl-5-(1-methylethylidene) cyclopentanone hydrochloride] | 19.1 | 40.7 | LEU | SCL | COL;LEU | 67.6 |  |
| CCOC(=O)COc1ccccc1/C=C1\CCC(CN(C)C)C1=O.Cl (centres unmarked) [Compound 4, 2-Dimethylaminomethyl-5-(E)-(2-ethoxycarbonylmethoxyl-benzylidene) cyclopentanone hydrochloride] | 6.31 | 15.8 | LEU | CNS;LNS;MEL | LEU |  |  |
| CC(/C=C1\CCC(CN(C)C)C1=O)c1cccc(Br)c1.Cl (centres unmarked) [Compound 5, 2-Dimethylaminomethyl-5-(E)-[2-(3-bromophenyl)propylidene] cyclopentanone hydrochloride] | 12.6 | 27.5 | LEU | CNS;OVA | LEU | 63.1 |  |
| CN(C)CC1CC/C(=C\c2ccccc2)C1=O.Cl (centres unmarked) [Compound 6, 2-Dimethylaminomethyl-5-(E)-benzylidene cyclopentanone hydrochloride] |  |  |  |  |  |  | Inhibition of carrageenin induced rat paw edema [9, 10]: 77.4% |
| COc1ccccc1/C=C1\CCC(CN(C)C)C1=O.Cl (centres unmarked) [Compound 7, 2-Dimethylaminomethyl-5-(E)-[(2-methoxy)benzylidene] cyclopentanone hydrochloride] | 6.31 | 15.8 | LEU | COL | COL | 39.8 | Inhibition of carrageenin induced rat paw edema ([9]; 12.5 mg/kg sc, about 0.5 hours before carrageenin): 44.2%; Inhibition of carrageenin induced rat paw edema [9, 11]: 70.3%; Inhibition of carrageenin induced rat paw edema [9, 10]: 95.8% |
| CN(C)CC1CC/C(=C\c2ccc(O)cc2)C1=O.Cl (centres unmarked) [Compound 8, 2-Dimethylaminomethyl-5-(E)-[(4-hydroxy)benzylidene] cyclopentanone hydrochloride] | 4.27 | 10.7 | COL;LEU | CNS;REN;SCL | LEU |  | Inhibition of carrageenin induced rat paw edema [9, 10]: 95.9% |
| O=C1/C(=C/c2ccc(O)cc2)CCC1CNc1ccc(Cl)cc1 (centres unmarked) [Compound 9, 2-[(4-Chlorophenyl)aminomethyl]-5-(E)-[(4-hydroxy)benzylidene] cyclopentanone] | 3.16 | 10 | COL;LEU;SCL | COL | LEU;SCL | 30.9 |  |
| COc1ccccc1/C=C1\CCC(CN2CCOCC2)C1=O.Cl (centres unmarked) [Compound 10, 2-Morpholinomethyl-5-(E)-[(2-methoxy)benzylidene]cyclopentanone hydrochloride] | 7.94 | 19.5 | LEU;COL | MEL;REN;OVA | LEU | 52.5 |  |
| COc1ccccc1/C=C1\CCC(Cc2ccccc2)(CN(C)C)C1=O.Cl (centres unmarked) [Compound 11, 2-Benzyl-2-dimethylaminomethyl-5-(E)-[(2-methoxy)benzylidene] cyclopentanone hydrochloride] | 2.19 | 25.1 | LEU;COL | COL | LEU | 83.2 | Inhibition of carrageenin induced rat paw edema [9, 12]: 52.2%; Inhibition of acetic acid induced mouse writhes ([4]; 96 mg/kg): 41.7% |
| COc1ccc(/C=C2\CCC(Cc3ccccc3)(CN(C)C)C2=O)cc1.Cl (centres unmarked) [Compound 12, 2-Benzyl-2-dimethylaminomethyl-5-(E)-[(4-methoxy)benzylidene] cyclopentanone hydrochloride] | 35.5 | 77.6 | COL;MEL | SCL | LEU;SCL |  | Inhibition of carrageenin induced rat paw edema [9, 12]: 57.3%; Inhibition of acetic acid induced mouse writhes ([4]; 48 mg/kg): 45.6%; Inhibition of acetic acid induced mouse writhes ([4]; 96 mg/kg): 86.6% |
| CN(C)CCC1(C2=CCCC2)CC/C(=C\c2ccc(Cl)cc2)C1=O (centres unmarked) [Compound 13, 2-(1-Cyclopenten-1-yl)-2-dimethylaminoethyl-5-(E)-[(4-chloro)benzylidene]cyclopentanone hydrochloride] | 7.08 | 19.1 | MEL | MEL | MEL | 44.7 |  |
| C=C1C(=O)O[C@@H]2C[C@@H](C)[C@@H]3C=CC(=O)[C@@]3(C)[C@@H](O)[C@H]12 [Helenalin] |  |  |  |  |  |  | anti-inflammatory activity (in words) [2]: potent; anticancer activity (in words) [3]: potent |
| CC(C)Cc1ccc(C(C)C(=O)O)cc1 (centres unmarked) [Ibuprofen, reference compound] |  |  |  |  |  |  | Inhibition of carrageenin induced rat paw edema [9, 11]: 72.9%; Inhibition of carrageenin induced rat paw edema ([9]; 52.0 mg/kg po, about 1 hour before carrageenin): 54.9% |
| C[C@@H]1C[C@@H]2OC(=O)[C@]3(C)[C@H]2[C@@H](OC3(C)O)[C@]2(C)C(=O)C=C[C@@H]12 (some centres unmarked) [Tenulin] |  |  |  |  |  |  | anti-inflammatory activity (in words) [2]: potent; anticancer activity (in words) [3]: potent |
